One experiment deals with T1, mouse RORγ (Mus musculus, UniProt P51450).
T1 construct: from Ile251 to Lys516 for mouse RORγ; expressed in transfected cells; host or cells: CHO cells (transient co-transfection with pG5-Luc)
T1 sequence (P51450 251-516): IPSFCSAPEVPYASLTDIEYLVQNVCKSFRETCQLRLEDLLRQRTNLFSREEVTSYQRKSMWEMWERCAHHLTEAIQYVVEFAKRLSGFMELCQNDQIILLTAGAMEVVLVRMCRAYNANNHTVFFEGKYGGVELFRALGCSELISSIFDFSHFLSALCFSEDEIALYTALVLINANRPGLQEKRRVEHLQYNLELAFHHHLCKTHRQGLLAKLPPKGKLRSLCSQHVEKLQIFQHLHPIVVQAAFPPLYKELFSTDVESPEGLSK
As to the kind of experiment: In-vitro reporter gene assay for inhibitory activity against RORγ transcription, Test Method A (GAL4-mRORγ LBD / pG5-Luc in CHO cells). It counts as cell-based. The settings on record: luciferase reporter, 2 days. How it is done:
(§1) In-Vitro Assay for Inhibitory Activity Against RORγ Transcription
(§2) Inhibitory activity against RORγ transcription was assessed for test compounds by either of the following Test Method A or B of reporter gene assay.
(§3) cDNAs encoding human and mouse RORγ ligand binding domains (LBD) were obtained based on the sequences of human RORγ (Genbank registered number NM_005060.3) and mouse RORγ (Genbank registered number NM_011281.2) (LBD sequences: from Ser253 to Lys518 for human RORγ; from Ile251 to Lys516 for mouse RORγ).
(§4) LBD cDNAs of human and mouse RORγ were inserted into pFA-CMV vector (Stratagene), which expresses GAL4-DNA binding domain fusion protein. The resulting plasmids are hereinafter referred to as GAL4-hRORγ plasmid and GAL4-mRORγ plasmid, respectively.
(§5) GAL4-hRORγ plasmid or GAL4-mRORγ plasmid was transiently co-transfected into Chinese hamster ovary cells (CHO cells) with pG5-Luc (Promega), reporter plasmid expressing firefly luciferase in a GAL4-dependent manner.
(§6) TransIT (Registered trademark) CHO Transfection Kit (Mirus) was used to co-transfect CHO cells with the plasmids. One day prior to the assay, CHO cells were suspended in HAM F-12 Nutrient medium containing 10% (v/v) fetal bovine serum and seeded at 6×10^6 cells per 175 cm^2 cell culture flask each. 54 μL of TransIT (Registered trademark) CHO reagent was added into a 15 mL tube containing 1.16 mL of HAM F-12 Nutrient medium without fetal bovine serum, and then mixed and incubated at room temperature for 10 minutes. 36 μL of a plasmid solution containing 400 ng of GAL4-hRORγ plasmid, 9000 ng of pG5-Luc plasmid, and 8600 ng of pcDNA3 plasmid were added into the tube and mixed gently. In the case of mouse assay, a plasmid solution containing 250 ng of GAL4-mRORγ plasmid, 9000 ng of pG5-Luc plasmid, and 8750 ng of pcDNA3 plasmid was added, instead. The mixture was incubated at room temperature for 10 minutes. 9 μL each of CHO Mojo Reagent were then added into each tube and mixed gently. The mixture was incubated at room temperature for 10 minutes. The resulting transfection reagent was applied to the cell culture. After incubation at 37° C., 5% CO2 for 4 hours, the plasmid-transfected CHO cells were harvested by trypsin treatment. The collected cells were resuspended in culture medium and plated into a 384-well-white plate at 8,000 cells/50 μL/well. The plate was let stand at room temperature for 1 hour and then further incubated at 37° C., 5% CO2 for 3 hours. A test compound was dissolved in DMSO to obtain a concentration of 10 mM. Each solution was serially diluted with DMSO and further diluted with culture medium just before use. The test compound solutions were added. to the cells in the plate at 8 different concentrations. The final concentration of DMSO was 0.2% (v/v). After the addition of test compound, the cells were incubated at […], 5% CO2 for 2 days.
(§7) RORγ transcriptional activity was detected as the intracellular luciferase activity using SteadyLite HTS Reporter Gene Assay System (Perkin Elmer). SteadyLite Reagent was diluted five-fold with Extension buffer (10 mM Tricine, 0.2% (w/v) bovine serum albumin, 0.02% (v/v) Tween-20) to obtain a luciferase substrate solution. After the measurement of the cell viability with Resazurin, the medium was removed in the plate and the luciferase substrate solution was added thereto. After the incubation at room temperature for 10 minutes, luminescence of each well was measured with a microplate reader. The luciferase activity derived from the luminescence count in a vehicle-control well treated with 0.2% DMSO alone was defined as 100%, and the luciferase activity after treatment with the test compound was calculated as a percentage, %-of-control, based on the value of the vehicle-control. An EC50 value of the test compound was calculated by curve fitting with GraphPad Prism. The luminescence counts at the concentration of test compound where cytotoxicity was observed were excluded from data analysis. […]
Background: Reporter assays use an easily measured gene product as a stand-in for the process of interest.

Another experiment has as its target T2, human RORγ (Homo sapiens, UniProt P51449).
T2 construct: from Ser253 to Lys518 for human RORγ; expressed in transfected cells; host or cells: CHO cells (transient co-transfection with pG5-Luc)
T2 sequence (P51449 253-518): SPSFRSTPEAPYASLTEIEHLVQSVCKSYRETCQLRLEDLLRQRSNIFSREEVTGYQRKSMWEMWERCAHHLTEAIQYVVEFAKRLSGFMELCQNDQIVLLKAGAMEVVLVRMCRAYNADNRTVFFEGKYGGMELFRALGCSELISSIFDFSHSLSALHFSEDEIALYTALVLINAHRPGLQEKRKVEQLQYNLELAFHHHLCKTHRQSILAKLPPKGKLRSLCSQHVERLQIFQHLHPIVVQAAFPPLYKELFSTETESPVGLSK
As to the kind of experiment: In-vitro reporter gene assay for inhibitory activity against RORγ transcription, Test Method A (GAL4-hRORγ LBD / pG5-Luc in CHO cells). The class given is cell-based. The conditions noted are these: luciferase reporter, 2 days. As to the method: as §1, §2, §3, §4, §5, §6, §7

One may read the EC50 as the concentration needed to bring the measured effect to its halfway point. Read a high EC50 as lower potency in that assay. Regarding `COCC1CC[C@@]2(c3ccc(CCC(C)(C)C)c(Cl)c3)NC(=O)N(C34CC(C(=O)O)(C3)C4)C=C2C1` (single isomer, unassigned) [Example 85], the 50% effective concentration (EC50) at mouse RORγ was determined as 0.073 µM; on human RORγ, 0.033 µM.
On to `CC(C)(C)CCc1ccc(C23CCCCC2=CN(CCC(=O)O)C(=O)N3)cc1Cl` (racemic) [Example 39], for which the results for the concentration for a half-maximal effect (EC50) at mouse RORγ and at human RORγ were 0.021 µM and 0.032 µM, respectively.
For the molecule `O=C(O)CCN1C=C2CCCCC2(c2ccc(OCCC3CCC3)c(Cl)c2)NC1=O` (racemic) [Example 62], the concentration giving a half-maximal response (EC50) on mouse RORγ amounted to 0.099 µM; on human RORγ, 0.151 µM.
Take `CC(C)(C)CCc1ccc(C23CC(C)(C)CCC2=CN(CCC(=O)O)C(=O)N3)cc1Cl` (racemic) [Example 64]: the concentration for a half-maximal effect (EC50) was 0.052 µM at mouse RORγ and 0.034 µM at human RORγ.
The corresponding values for `CC(C)(C)CCc1ccc(C23CCCC(CCOCc4ccccc4)C2=CN(CCC(=O)O)C(=O)N3)cc1Cl` (racemic) [Example 43] are 0.159 µM and 0.043 µM.
For `CC(C)(C)CCc1ccc(C23COC(C)(C)C2=CN(CCC(=O)O)C(=O)N3)cc1Cl` (single isomer, unassigned) [Example 6], in that order: 0.714 µM and 0.554 µM.
For `C[C@@H]1CCC2(c3ccc(CCC(C)(C)C)c(Cl)c3)NC(=O)N(CCC(=O)O)C=C12` (single isomer, unassigned) [Example 12], in that order: 3.43 µM and 2.58 µM.
Turning to `CC1CC[C@@]2(c3ccc(CCC(C)(C)C)c(Cl)c3)NC(=O)N(CCC(=O)O)C=C2C1` (single isomer, unassigned) [Example 81], the concentration for a half-maximal effect (EC50) came out at 0.019 µM at mouse RORγ and 0.013 µM at human RORγ.
With `CC(C)(C)CCc1ccc(C23CCC(C)(C)C2=CN(CCC(=O)O)C(=O)N3)cc1Cl` (single isomer, unassigned) [Example 3, 3-{7a-[3-Chloro-4-(3,3-dimethyl-butyl)phenyl]-5,5-dimethyl-2-oxo-1,2,5,6,7,7a-hexahydro-cyclopentapyrimidin-3-yl}propionate], the figures for the half-maximal effective concentration (EC50) on mouse RORγ and at human RORγ were 0.013 µM and 0.008 µM, respectively.
Consider `COCC1CC[C@]2(c3ccc(CCC(C)(C)C)c(Cl)c3)NC(=O)N(C34CC(C(=O)O)(C3)C4)C=C2C1` (single isomer, unassigned) [Example 84], for which the 50% effective concentration (EC50) at mouse RORγ and on human RORγ was more than 10 µM in each case.
Take `CCOC(=O)CCN1C=C2C(CCNC)CCCC2(c2ccc(CCC(C)(C)C)c(Cl)c2)NC1=O` (racemic) [Example 49]: the EC50 at mouse RORγ and at human RORγ was more than 3.2 µM in each case.
On to `CCOC(=O)CCN1C=C2C(CN)CCCC2(c2ccc(CCC(C)(C)C)c(Cl)c2)NC1=O` (racemic) [Example 47], for which the values for the EC50 at mouse RORγ and at human RORγ were 8.83 µM and more than 8 µM, respectively.
In the case of `C[C@@H]1CC2=CN(CCC(=O)O)C(=O)NC2(c2ccc(CCC(C)(C)C)c(Cl)c2)CO1` (single isomer, unassigned) [Example 71], the 50% effective concentration (EC50) at mouse RORγ came to 0.007 µM; at human RORγ, 0.01 µM.
The corresponding values for `CC1CCCC2(c3ccc(CCC(C)(C)C)c(Cl)c3)NC(=O)N(C34CC(C(=O)O)(C3)C4)C=C12` (racemic) [Example 73] are 0.027 µM and 0.014 µM.
The corresponding values for `CC(C)(C)CCc1ccc([C@@]23CCCC(C)(C)C2=CN(CCC(=O)O)C(=O)N3)cc1Cl` (single isomer, unassigned) [Example 38] are 0.021 µM and 0.011 µM.
As to `CC(C)CCOc1ccc(C23CCCCC2=CN(CCC(=O)O)C(=O)N3)cc1Cl` (racemic) [Example 59], the EC50 on mouse RORγ came out at 0.149 µM; at human RORγ, 0.279 µM.
For `CC(C)(C)CCc1ccc(C23CCCC2=CN(CCC(=O)O)C(=O)N3)cc1Cl` (racemic) [Example 24], in that order: 0.126 µM and 0.332 µM.
In the case of `CC(C)(C)CCc1ccc(C23CCC(C)(C)CC2=CN(CCC(=O)O)C(=O)N3)cc1Cl` (racemic) [Example 74], the EC50 came to 0.024 µM on mouse RORγ and 0.016 µM at human RORγ.
Regarding `CC(C)(C)CCc1ccc([C@@]23CCCCC2=CN(CCC(=O)O)C(=O)N3)cc1Cl` (single isomer, unassigned) [Example 41], the concentration giving a half-maximal response (EC50) stood at 0.013 µM on mouse RORγ and 0.017 µM at human RORγ.
For `CC(C)(C)CCc1ccc([C@@]23CCCCC2=CN(C24CC(C(=O)O)(C2)C4)C(=O)N3)cc1Cl` [Example 54, 3-{(S)-8a-[3-Chloro-4-(3,3-dimethyl-butyl)phenyl]-2-oxo-1,5,6,7,8,8a-hexahydro-2H-quinazolin-3-yl}bicyclo[1.1.1]pentane-1-carboxylic acid], in that order: 0.035 µM and 0.064 µM.
Regarding `CC(C)(C)CCc1ccc([C@]23COC(COCc4ccccc4)C2=CN(CCC(=O)O)C(=O)N3)cc1Cl` (single isomer, unassigned) [Example 15], the EC50 at mouse RORγ and at human RORγ was more than 8 µM in each case.
Regarding `CC(C)(C)COc1ccc(C23CCCC2=NNC(=O)N3)cc1Cl` (racemic) [Example 1, 4a-[3-Chloro-4-(2,2-dimethyl-propoxy)phenyl]-2,4,4a,5,6,7-hexahydro-cyclopenta[1,2,4]triazin-3-one], the results for the half-maximal effective concentration (EC50) on mouse RORγ and on human RORγ were 0.536 µM and 1.69 µM, respectively.
For `CC(C)(C)CCc1ccc(C23CCCC(CCO)C2=CN(CCC(=O)O)C(=O)N3)cc1Cl` (racemic) [Example 44], in that order: 0.482 µM and 1.27 µM.
The corresponding values for `CC(C)(C)CCc1ccc(C23COC(C)(C)C2=CN(c2ccc(C(=O)O)cc2)C(=O)N3)cc1Cl` (single isomer, unassigned) [Example 7] are 0.011 µM and 0.009 µM.
For `CC(C)(C)CCc1ccc(C23CC(C)(C)CC2=CN(CCC(=O)O)C(=O)N3)cc1Cl` (single isomer, unassigned) [Example 32], in that order: 0.018 µM and 0.021 µM.
Take `CC(C)(C)CCc1ccc(C23CCC(F)(F)CC2=CN(CCC(=O)O)C(=O)N3)cc1Cl` (racemic) [Example 63]: the 50% effective concentration (EC50) on mouse RORγ and on human RORγ was 0.022 µM in each case.
Take `COCC1CCCC2(c3ccc(CCC(C)(C)C)c(Cl)c3)NC(=O)N(CCC(=O)O)C=C12` (racemic) [Example 56]: the EC50 on mouse RORγ was determined as 0.029 µM; on human RORγ, 0.02 µM.
As for `CC(C)(C)COc1ccc(C23CCCCC2=CN(CCC(=O)O)C(=O)N3)cc1Cl` (racemic) [Example 60], the EC50 at mouse RORγ was found to be 0.072 µM; on human RORγ, 0.118 µM.

The values above are taken from patent US20220119355A1, “SATURATED-RING-FUSED DIHYDROPYRIMIDINONE OR DIHYDROTRIAZINONE COMPOUNDS AND PHARMACEUTICAL USE THEREOF” (Japan Tobacco Inc., priority 2018, published 2022).
